This experiment deals with WDR5 (Homo sapiens (Human), UniProt P61964). The experiment in a line: TR-FRET binding assay (displacement of 10mer-Thr-FAM probe from WDR5). Conditions: read-out: Ki for Inhibition of WDR5 by TR-FRET assay. A general note: In TR-FRET formats the signal depends on donor and acceptor labels being close together.
Where [1] appears, read: TR-FRET, 10mer-Thr-FAM probe, WDR5-His tag 2 nM, pH 7.0.

These results are taken from US10844044B2 (Vanderbilt University, priority 2018, dated 2020).

Where two headings read alike, the source gives them in different places.

The term Ki denotes a dissociation constant, usually derived from enzyme kinetics or from competition with a known ligand. `COc1ncc(C)cc1-c1cc(Cn2ccn(C)c2=N)cc(C(=O)NC(c2cc(C)ccn2)C2CC2)c1` (stereo not drawn) [Example 2, N-(Cyclopropyl(4-methylpyridin-2-yl)methyl)-3-((2-imino-3-methyl-2,3-dihydro-1-imidazol-1-yl)methyl)-5-(2-methoxy-5-methylpyridin-3-yl)benzamide]: under setting [1], the Ki is less than 0.1 nM.

`COc1ccnc(CNC(=O)c2cc(Cn3ccn(C)c3=N)cc(-c3cc(C)cnc3OC)c2)c1` [Example 4, 3-((2-imino-3-methyl-2,3-dihydro-1H-imidazol-1-yl)methyl)-5-(2-methoxy-5-methylpyridin-3-yl)-N-((4-methoxypyridin-2-yl)methyl)benzamide]: the Ki under setting [1] is 0.34 nM. On the same count and under the same terms, then `Cc1cc(F)ccc1-c1cc(Cn2cc[nH]c2=N)cc(C(=O)NCc2ccc(Cl)c(Cl)c2)n1` [Example 6, N-(3,4-Dichlorobenzyl)-6-(4-fluoro-2-methylphenyl)-4-((2-imino-2,3-dihydro-1H-imidazol-1-yl)methyl)picolinamide], with 24 nM; and `Cc1ccnc(C(NC(=O)c2cc(Cn3ccn(C)c3=N)cc(-c3ccnc(C)c3)c2)C2CC2)c1` (stereo not drawn) [Example 7], with 0.8 nM. Still for that read-out and setting: then `Cc1ccnc(C(NC(=O)c2cc(Cn3ccn(C)c3=N)cc(-c3cccn3C)c2)C2CC2)c1` (stereo not drawn) [Example 11, N-(Cyclopropyl(4-methylpyridin-2-yl)methyl)-3-((2-imino-3-methyl-2,3-dihydro-1H-imidazol-1-yl)methyl)-5-(1-methyl-1H-pyrrol-2-yl)benzamide], with 0.83 nM; and `Cc1ccnc(C(NC(=O)c2cc(Cn3ccn(C)c3=N)cc(-c3ccnn3C)c2)C2CC2)c1` (stereo not drawn) [Example 12, N-(Cyclopropyl(4-methylpyridin-2-yl)methyl)-3-((2-imino-3-methyl-2,3-dihydro-1H-imidazol-1-yl)methyl)-5-(1-methyl-1H-pyrazol-5-yl)benzamide], with 1.2 nM; and `COc1cc(-c2cc(Cn3ccn(C)c3=N)cc(C(=O)NC(c3cc(C)ccn3)C3CC3)c2)ccn1` (stereo not drawn) [Example 14], with 6 nM.

For the compound `Cc1ccnc(C(NC(=O)c2cc(Cn3ccn(C)c3=N)cc(-c3cnccc3C)c2)C2CC2)c1` (stereo not drawn) [Example 15, N-(Cyclopropyl(4-methylpyridin-2-yl)methyl)-3-((2-imino-3-methyl-2,3-dihydro-1H-imidazol-1-yl)methyl)-5-(4-methylpyridin-3-yl)benzamide], under setting [1], the Ki was determined as 2.7 nM.

Regarding `Cc1cc(CNC(=O)c2cc(Cn3ccn(C)c3=N)cc(-c3ccncc3C)c2)ccc1Cl` [Example 16, N-(4-Chloro-3-methylbenzyl)-3-((2-imino-3-methyl-2,3-dihydro-1H-imidazol-1-yl)methyl)-5-(3-methylpyridin-4-yl)benzamide], under setting [1], the Ki is 0.49 nM. As to `Cc1cc(CNC(=O)c2cc(Cn3ccn(C)c3=N)cc(-c3ccnn3C)c2)ccc1Cl` [Example 17, N-(4-Chloro-3-methylbenzyl)-3-((2-imino-3-methyl-2,3-dihydro 1H-imidazol-1-yl)methyl)-5-(1-methyl-1H-pyrazol-5-yl)benzamide], the Ki under setting [1] turned out to be 0.94 nM.

Turning to `Cc1cc(-c2cc(Cn3ccn(C)c3=N)cc(C(=O)NCc3ccc(Cl)c(C)c3)c2)ccn1` [Example 18, N-(4-Chloro-3-methylbenzyl)-3-((2-imino-3-methyl-2,3-dihydro-1H-imidazol-1-yl)methyl)-5-(2-methylpyridin-4-yl)benzamide], the Ki under setting [1] came out at 3.5 nM. On the same count and under the same terms, the figure for `Cc1cc(CNC(=O)c2cc(Cn3cc[nH]c3=N)cc(-c3cccn3C)c2)ccc1Cl` [Example 19, N-(4-Chloro-3-methylbenzyl)-3-((2-imino-2,3-dihydro-1H-imidazol-1-yl)methyl)-5-(1-methyl-1H-pyrrol-2-yl)benzamide] is 0.35 nM; for `COc1cnccc1-c1cc(Cn2ccn(C)c2=N)cc(C(=O)NCc2ccc(Cl)c(C)c2)c1` [Example 20, N-(4-Chloro-3-methylbenzyl)-3-((2-imino-3-methyl-2,3-dihydro-1H-imidazol-1-yl)methyl)-5-(3-methoxypyridin-4-yl)benzamide] it is 2.5 nM; for `COc1cc(-c2cc(Cn3ccn(C)c3=N)cc(C(=O)NCc3ccc(Cl)c(Cl)c3)c2)ccn1` [Example 24, N-(3,4-Dichlorobenzyl)-3-((2-imino-3-methyl-2,3-dihydro-1H-imidazol-1-yl)methyl)-5-(2-methoxypyridin-4-yl)benzamide] it is 25 nM. The same measure, in the same setting: then `Cc1ncccc1-c1cc(Cn2ccn(C)c2=N)cc(C(=O)NCc2cncnc2)c1` [Example 40, 3-((2-Imino-3-methyl-2,3-dihydro-1H-imidazol-1-yl)methyl)-5-(2-methylpyridin-3-yl)-N-(pyrimidin-5-ylmethyl)benzamide], with 133 nM; and `COc1cc(CNC(=O)c2cc(Cn3ccn(C)c3=N)cc(-c3cccnc3C)c2)ccn1` [Example 41, 3-((2-Imino-3-methyl-2,3-dihydro-1H-imidazol-1-yl)methyl)-N-((2-methoxypyridin-4-yl)methyl)-5-(2-methylpyridin-3-yl)benzamide], with 33 nM; and `COc1ccnc(CNC(=O)c2cc(Cn3ccn(C)c3=N)cc(-c3cccnc3C)c2)c1` [Example 43, 3-((2-Imino-3-methyl-2,3-dihydro-1H-imidazol-1-yl)methyl)-N-((4-methoxypyridin-2-yl)methyl)-5-(2-methylpyridin-3-yl)benzamide], with 8420 nM.

As for `COc1cc(CN(C)C(=O)c2cc(Cn3ccn(C)c3=N)cc(-c3ccnc(C)c3)c2)cc(OC)c1` [Example 48, N-(3,5-dimethoxybenzyl)-3-((2-imino-3-methyl-2,3-dihydro-1H-imidazol-1-yl)methyl)-N-methyl-5-(2-methylpyridin-4-yl)benzamide], under setting [1], the Ki came to 26 nM.

Regarding `Cc1cc(-c2cc(Cn3ccn(C)c3=N)cc(C(=O)NC(C3CC3)C3CC3)c2)ccn1` [Example 49, N-(Dicyclopropylmethyl)-3-((2-imino-3-methyl-2,3-dihydro-1H-imidazol-1-yl)methyl)-5-(2-methylpyridin-4-yl)benzamide], the Ki under setting [1] was 22 nM.

On to `Cc1cc(-c2cc(Cn3ccn(C)c3=N)cc(C(=O)NCc3ncc(Cl)cn3)c2)ccn1` [Example 51, N-((5-Chloropyrimidin-2-yl)methyl)-3-((2-imino-3-methyl-2,3-dihydro-1H-imidazol-1-yl)methyl)-5-(2-methylpyridin-4-yl)benzamide], for which the Ki under setting [1] came out at 17 nM. Still for that read-out and setting: then `COc1cc(CNC(=O)c2cc(Cn3ccn(C)c3=N)cc(-c3cnc(F)cc3C)c2)cc(OC)c1` [Example 78, N-(3,5-Dimethoxybenzyl)-3-(6-fluoro-4-methylpyridin-3-yl)-5-((2-imino-3-methyl-2,3-dihydro-1H-imidazol-1-yl)methyl)benzamide], with 5.9 nM; and `Cc1cc(CNC(=O)c2cc(Cn3ccn(C)c3=N)cc(-c3cnc(F)cc3C)c2)ccc1Cl` [Example 79, N-(4-Chloro-3-methylbenzyl)-3-(6-fluoro-4-methylpyridin-3-yl)-5-((2-imino-3-methyl-2,3-dihydro-1H-imidazol-1-yl)methyl)benzamide], with 4.3 nM; and `Cc1cc(CNC(=O)c2cc(Cn3ccn(C)c3=N)cc(-c3ccc(=O)[nH]c3C)c2)ccc1Cl` [Example 80, N-(4-Chloro-3-methylbenzyl)-3-((2-imino-3-methyl-2,3-dihydro-1H-imidazol-1-yl)methyl)-5-(2-methyl-6-oxo-1,6-dihydropyridin-3-yl)benzamide], with 20 nM.

As to `COc1cc(CNC(=O)c2cc(Cn3ccn(C)c3=N)cc(-c3c[nH]c(=O)cc3C)c2)cc(OC)c1` [Example 81, N-(3,5-Dimethoxybenzyl)-3-((2-imino-3-methyl-2,3-dihydro-1H-imidazol-1-yl)methyl)-5-(4-methyl-6-oxo-1,6-dihydropyridin-3-yl)benzamide], under setting [1], the Ki was 13 nM. In the case of `Cc1cc(=O)[nH]cc1-c1cc(Cn2ccn(C)c2=N)cc(C(=O)NCc2ccc(Cl)c(Cl)c2)c1` [Example 82, N-(3,4-dichlorobenzyl)-3-((2-imino-3-methyl-2,3-dihydro-1H-imidazol-1-yl)methyl)-5-(4-methyl-6-oxo-1,6-dihydropyridin-3-yl)benzamide], the Ki under setting [1] stood at 20 nM. Still for that read-out and setting: the figure for `Cc1cc(CNC(=O)c2cc(Cn3ccn(C)c3=N)cc(-c3c[nH]c(=O)cc3C)c2)ccc1Cl` [Example 83, N-(4-Chloro-3-methylbenzyl)-3-((2-imino-3-methyl-2,3-dihydro-1H-imidazol-1-yl)methyl)-5-(4-methyl-6-oxo-1,6-dihydropyridin-3-yl)benzamide] is 7.1 nM. The same measure, in the same setting: the figure for `Cc1ccccc1-c1cc(Cn2ccn(C)c2=N)cc(C(=O)NCc2ccc(Cl)c(Cl)c2)c1` [Example 92, N-(3,4-dichlorobenzyl)-5-((2-imino-3-methyl-2,3-dihydro-1H-imidazol-1-yl)methyl)-2′-methyl-[1,1′-biphenyl]-3-carboxamide] is 0.72 nM; for `COc1ccnc([C@H](NC(=O)c2cc(Cn3ccn(C)c3=N)cc(-c3ccc(F)cc3C)c2)C2CC2)c1` [Example 93, (R)—N-(Cyclopropyl(4-methoxypyridin-2-yl)methyl)-4′-fluoro-5-((2-imino-3-methyl-2,3-dihydro-1H-imidazol-1-yl)methyl)-2′-methyl-[1,1′-biphenyl]-3-carboxamide] it is 1.9 nM; for `Cc1cc([C@@H](NC(=O)c2cc(Cn3ccn(C)c3=N)cc(-c3ncnc4c3CCCC4)c2)C2CC2)ccc1F` [Example 94, (S)—N-(Cyclopropyl(4-fluoro-3-methylphenyl)methyl)-3-((2-imino-3-methyl-2,3-dihydro-1H-imidazol-1-yl)methyl)-5-(5,6,7,8-tetrahydroquinazolin-4-yl)benzamide] it is 36 nM.

In the case of `Cc1ccnc(C(NC(=O)c2cc(Cn3ccn(C)c3=N)cc(-c3ncnc4c3CCCC4)c2)C2CC2)c1` (stereo not drawn) [Example 95, N-(Cyclopropyl(4-methylpyridin-2-yl)methyl)-3-((2-imino-3-methyl-2,3-dihydro-1H-imidazol-1-yl)methyl)-5-(5,6,7,8-tetrahydroquinazolin-4-yl)benzamide], the Ki was 20 nM.
